According to US9359341B2, “Aldehyde derivative of substitute oxazolidinones” (WANBURY LTD., priority 2012, dated 2016):

Columns and labels:
[1] = In vitro liver microsomal stability assay (mouse); type: in vitro ADME; conditions: mouse liver microsomes
Experimental: (§1) Liver microsomal stability assays are conducted at 1 mg per mL liver microsome protein with an NADPH in phosphate buffer (100 mM, pH 7.4). Test compounds (compound of formula B of the invention) are prepared as solutions in 20% methanol-water and added to the assay mixture (final assay concentration 1 μM) and incubated at 37° C. Aliquots (100.μ·L) are taken out at times 0, 15, and 30 minutes, and diluted with ice cold acetonitrile containing IS (200.mu·L) to stop the reactions. Samples are centrifuged at 10,000 RPM for 5 minutes to precipitate proteins. Supernatants are transferred to micro centrifuge tubes and stored at −20° C. for analysis of LC/MS/MS. The percent parent remaining of the test substance is calculated as Ratio of peak area at each time point to peak area ratio at zero min, multiplied by 100. The compound formula (B) is converted to Rivaroxaban in microsomal assay.

[2] = test system: plasma protein; assay: Plasma protein binding (mouse); type: in vitro ADME
Experimental: (§2) A compound solution (1 mM in DMSO) (5 μL), according to the invention is added to the respective plasma matrices of rat or human or mouse (1 ml).
(§3) Add 150 ul of phosphate buffer to receiving side of the dialysis well. […] Precipitate with Acetonitrile and dilute samples prior to analysis in 1.5 ml polypropylene tubes. Remove 50 μl from the sample side of dialysis well and add 50 μl of phosphate buffer +300 μl of acetonitrile containing IS. Remove 50 μl from the buffer side of the dialysis well and add 50 μl of respective matrix plasma +300 μl of ACN. Then vortexed and centrifuged for 5 min, and supernatant is taken and injected into LCMS.
(§4) Different test concentration ranging from 0.1 μM to 20 μM are made in methanol:water (90:10). Test solutions are added to the premixed matrix containing plasma:phosphate buffer (50:50). Precipitate with 300 μl of ice cold acetonitrile containing IS, vortexes and centrifuged. Supernatant is taken and injected into LCMS. Percentage of plasma protein binding was obtained via Equation(2):% Fraction unbound=(concentration on the buffer side/concentration on the sample side)*100 Table-7

[3] = Stability in buffer at various pH; type: physicochemical; conditions: for Analyte Peak Area, Average: Standard average 39849828
Experimental: (§5) On completion of incubation period, the solution is centrifuged and supernatant is taken. To the supernatant, ice cold acetonitrile containing IS is added, vortexed and injected into LCMS/MS.
(§6) API 4000, ESI Agilent 1100 column: Gemini Nx 100 mm×4.6 mm 5.μ; column temperature: 30° C.; eluent A: 0.1% formic acid in water, eluent B: acetonitrile; gradient: 0-2.5 min 95% A, 5% B; 2.5-2.6 min 5% A, 95% B; 2.6-4.2 min 95% A, 5% B; flow rate: 0.8 ml/min; ESI. Q1:464.098, Q3:144.255
(§7) Prepared 0.1 mol of citric acid and 0.2 mol of di sodium hydrogen phosphate in water. Buffer pH 2.2, 4 and 7.8 are prepared using citric acid and disodium hydrogen phosphate by adjusting the pH with 0.1N HCl or 1N NaOHpH 7.4: 8.89 g disodium hydrogen phosphate (Solution A) add to 1 liter of water, 1.5601 g sodium di-hydrogen phosphate (solution B) are made up to 1 liter with water; Solution A (19 ml) and Solution B (81 ml) are mixed. SIF/SGF: 2.38 g of SIF original powder (biorelavant media) is dissolved in 1 L of milliQ water. The pH of the solution is adjusted for SIF (7.4) and SGF (2.2) with 0.1N HCl. The ratios of the peak areas (F) at the respective time points in relation to the peak areas at the starting time are calculated

[4] = In vitro stability in mouse plasma; type: in vitro ADME; conditions: conversion to rivaroxaban seen from zero min
Experimental: (§8) The final concentration of the test compound in the assay is 5 micromolar. […] C. The 100 microliters of aliquot at time point was removed and diluted with ice cold acetonitrile containing IS (200.mu·L) to stop the reactions. Samples are centrifuged at 10,000 RPM for 5 minutes to precipitate proteins. Supernatants are transferred to micro centrifuge tubes and stored at −20° C. for analysis of LC/MS/MS. The percent parent remaining of the test substance is calculated as ratio of peak area at each time point to peak area ratio at zero min, multiplied by 100.
(§9) API 4000, ESI Agilent 1100 column: Gemini Nx 100 mm×4.6 mm 5.1; column temperature: 30° C.; eluent A: 0.1% formic acid in water, eluent B: acetonitrile; gradient: 0-2.5 min 95% A, 5% B; 2.5-2.6 min 5% A, 95% B; 2.6-4.2 min 95% A, 5% B; flow rate: 0.8 ml/min; ESI. Q1:464.098, Q3:144.255

[5] = test system: plasma protein; assay: Plasma protein binding (rat); type: in vitro ADME
Experimental: as §2, §3, §4

[6] = In vitro liver microsomal stability assay (human); type: in vitro ADME; conditions: human liver microsomes
Experimental: as §1

[7] = In vitro stability in human plasma; type: in vitro ADME; conditions: conversion to rivaroxaban seen from zero min
Experimental: as §8, §9

[8] = Anticoagulant activity (PT, APTT) in human plasma; conditions: PT and APTT, 0.1 to 1.0 μg/mL
Experimental: The anticoagulant action of the test substance (compound formula-B) and rivaroxaban was determined in vitro using human plasma. The human plasma used for this experiment was separated from the blood collected in sodium citrate as anticoagulant. The prothrombin time (PT) was determined by using a commercial test kit (Neoplastin from Stagid) and APTT was determined using (Synthasil kit by IL). […] Coagulation was then started by addition of thromboplastin, and time when coagulation occurred was determined. The concentration of test substance which effected a doubling of prothrombin time was determined.

[9] = Stability in simulating gastric fluid (SGF); type: physicochemical
Experimental: as §5, §6, §7
The peak area (F) is directly correlated to the amount of test compound which is quantified by the LC MS method.
In simulating intestinal and gastric fluid, the area of the formula B compared with zero minute area to 120 min.

[10] = metabolised to rivaroxaban from zero min

Observation (metabolism; for Test Product: of the formed rivaroxaban) [1]: shown metabolism
amount of test product detected [1, 10]: min. Neglible
Observation: amount of test product [2]: Not quantificable amount
Observation: formed Rivaroxaban bound to plasma protein [2]: found to be moderate-High
Analyte Peak Area, Average ([3]; buffer pH 2.1, 24 hr room temperature): 28315038 counts
Analyte Peak Area, Average ([3]; buffer pH 4, 24 hr room temperature): 34879190 counts
Analyte Peak Area, Average ([3]; buffer pH 7.8, 24 hr room temperature): 38907.5 counts
stability in varying pH buffer conditions ([3]; rivaroxaban formation observed by LCMS): degraded in varying pH buffer conditions
Conversion: amount of test product detected [4]: min. Neglible
Observation: amount of test product [5]: Not quantificable amount
Observation: formed Rivaroxaban bound to plasma protein [5]: found to be moderate-High
Observation (metabolism; for Test Product: of the formed rivaroxaban) [6]: stable in human
amount of test product detected [6, 10]: Neglible amount
Conversion: amount of test product detected [7]: min. Neglible
% Parent remaining ([9]; 30 min): 99.27%
% Parent remaining ([9]; 60 min): 101.17%
% Parent remaining ([9]; 120 min): 100.05%
% Parent remaining ([9]; Zero min): 100%
Conclusion (stability in SGF) ([9]; up to 120 min): is stable
SMILES: O=CN(C[C@H]1CN(c2ccc(N3CCOCC3=O)cc2)C(=O)O1)C(=O)c1ccc(Cl)s1 [Compound formula B, 5-chloro-N-formyl-N-({(5S)-2-oxo-3-[4-(3-oxomorpholin-4-yl)phenyl]-1,3-oxazolidin-5-yl}methyl)thiophene-2-carboxamide]
anticoagulant activity [8]: significant anticoagulant activity
